Reference: PubChem BioAssay (NCI)
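Exposure lasted 48 hours, with cells grown in 96-well plates and compounds tested at five concentrations. GI50 = concentration required for 50% inhibition of growth. At the TGI there is no net growth.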

Key:
Assay in all cases: NCI-60 cell line screen, 48 h
CAKI-1 renal = system: CAKI-1 renal
MALME-3M melanoma = system: MALME-3M melanoma
SK-OV-3 ovarian = system: SK-OV-3 ovarian
RPMI-8226 leukemia = system: RPMI-8226 leukemia
DU-145 prostate = system: DU-145 prostate
U251 CNS = system: U251 CNS
UACC-62 melanoma = system: UACC-62 melanoma
M14 melanoma = system: M14 melanoma
OVCAR-3 ovarian = system: OVCAR-3 ovarian
CCRF-CEM leukemia = system: CCRF-CEM leukemia

Structure (SMILES) | GI50 (CAKI-1 renal) | TGI (CAKI-1 renal) | GI50 (MALME-3M melanoma) | TGI (MALME-3M melanoma) | GI50 (SK-OV-3 ovarian) | TGI (SK-OV-3 ovarian) | GI50 (RPMI-8226 leukemia) | TGI (RPMI-8226 leukemia) | GI50 (DU-145 prostate) | TGI (DU-145 prostate) | GI50 (U251 CNS) | TGI (U251 CNS) | GI50 (UACC-62 melanoma) | TGI (UACC-62 melanoma) | GI50 (M14 melanoma) | TGI (M14 melanoma) | GI50 (OVCAR-3 ovarian) | TGI (OVCAR-3 ovarian) | TGI (CCRF-CEM leukemia)
Oc1c(CCl)cc(Cl)cc1Cc1cc(Cl)cc(Cc2cc(Cl)cc(CCl)c2O)c1O | 3.37 µM | 17.7 µM | 3.32 µM | 14.7 µM | 3.25 µM | 11.4 µM | 3.08 µM | 91.7 µM | 4.28 µM | 37.1 µM | 2.83 µM | 21.1 µM | 2.9 µM | 11.1 µM | 3.54 µM | 15.7 µM | 3.59 µM | 15 µM | –
CC(=O)Nc1ccc(S(=O)(=O)N/N=C/c2cc(I)cc([N+](=O)[O-])c2O)cc1 | – | > 100 µM | – | > 100 µM | – | > 100 µM | – | > 100 µM | – | – | – | > 100 µM | – | 90.9 µM | – | > 100 µM | – | > 100 µM | > 100 µM
O=C(O)c1cc(C(=O)C(=O)c2cc(C(=O)O)c(O)c3ccccc23)c2ccccc2c1O | – | > 100 µM | – | > 100 µM | – | > 100 µM | – | > 100 µM | – | > 100 µM | – | > 100 µM | – | > 100 µM | – | > 100 µM | – | > 100 µM | –
O=C(Cc1c(C(=O)Nc2ccccc2)sc(C(=O)Nc2ccccc2)c1CC(=O)Nc1ccccc1)Nc1ccccc1 | – | > 100 µM | – | > 100 µM | – | > 100 µM | – | > 100 µM | – | – | – | > 100 µM | – | > 100 µM | – | > 100 µM | – | > 100 µM | > 100 µM
C#CCOCCCC(=O)O | – | > 100 µM | – | – | – | > 100 µM | – | > 100 µM | – | > 100 µM | – | > 100 µM | – | > 100 µM | – | > 100 µM | – | > 100 µM | > 100 µM
CCCCN(CCCC)C(=O)C(=O)C(C(=O)C(=O)OC)c1nc2ccccc2o1 (stereo not drawn) | – | > 100 µM | – | > 100 µM | – | > 100 µM | – | – | – | – | – | > 100 µM | – | – | – | > 100 µM | – | > 100 µM | > 100 µM
Cc1ccccc1C(C#N)/C(=N/NC(N)=S)C(=O)Nc1c(C)cccc1C (stereo not drawn) | – | – | – | > 100 µM | – | – | – | > 100 µM | – | – | – | > 100 µM | – | > 100 µM | – | > 100 µM | – | > 100 µM | > 100 µM
Cc1cc2c(cc1C)[n+](=O)c(C(=O)CC(=O)C(=O)Nc1ccccc1C)c(C)n2[O-] | – | > 100 µM | – | > 100 µM | – | > 100 µM | – | > 100 µM | – | – | – | > 100 µM | – | > 100 µM | – | > 100 µM | – | > 100 µM | > 100 µM
Cn1cnc([N+](=O)[O-])c1Sc1nccn1-c1ccccc1 | – | > 100 µM | – | 62.8 µM | – | > 100 µM | – | > 100 µM | – | – | – | > 100 µM | – | > 100 µM | – | > 100 µM | – | > 100 µM | > 100 µM
CC[C@H]1[C@@H](C)C=C[C@@H](C)N1S(=O)(=O)c1ccc(C)cc1 | – | > 100 µM | – | > 100 µM | – | > 100 µM | – | > 100 µM | – | – | – | > 100 µM | – | > 100 µM | – | > 100 µM | – | > 100 µM | > 100 µM
S=c1sc2sc(=S)sc2s1 | – | > 100 µM | – | > 100 µM | – | 33.9 µM | – | > 100 µM | – | – | – | 49 µM | – | > 100 µM | – | 59 µM | – | – | > 100 µM
Cc1cc2c(=O)cc(-c3ccc(C(=O)O)cc3)oc2c(C(N)=O)c1C | – | – | – | > 100 µM | – | > 100 µM | – | > 100 µM | – | – | – | > 100 µM | – | > 100 µM | – | > 100 µM | – | > 100 µM | > 100 µM
COC1OC(CO)C(O)C(NC(=O)N(C)N=O)C1O (stereo not drawn) | – | > 100 µM | – | > 100 µM | – | > 100 µM | – | > 100 µM | – | – | – | > 100 µM | – | – | – | > 100 µM | – | > 100 µM | > 100 µM
CN1C(=O)CNS1(=O)=O | – | – | – | > 100 µM | – | > 100 µM | – | > 100 µM | – | – | – | > 100 µM | – | > 100 µM | – | > 100 µM | – | > 100 µM | > 100 µM
Cc1cc2c(=O)cc(-c3ccc(Cl)c(Cl)c3)oc2c(C(=O)O)c1C | – | > 100 µM | – | > 100 µM | – | > 100 µM | – | > 100 µM | – | – | – | > 100 µM | – | > 100 µM | – | > 100 µM | – | > 100 µM | > 100 µM
Cc1ccc([I+]c2ccc(C)cc2)cc1 | 4.55 µM | 71.4 µM | 1.97 µM | 44.8 µM | 21.8 µM | > 100 µM | 1.16 µM | 50 µM | 12 µM | > 100 µM | 4.1 µM | > 100 µM | 8.86 µM | > 100 µM | 10.8 µM | > 100 µM | 7.63 µM | > 100 µM | –
Cc1cn2c(/C=N/NC3=NCCN3)c(-c3ccc(Cl)c([N+](=O)[O-])c3)nc2s1 | 1.98 µM | 10 µM | – | – | 1.53 µM | 3.68 µM | 1.27 µM | > 50 µM | 0.789 µM | 1.89 µM | 0.947 µM | 1.75 µM | 0.933 µM | 1.98 µM | 1.06 µM | 2.17 µM | – | – | –
CC1=CC=C2C(C)(C)CC[C@@H]3OC(=O)[C@H]1[C@]23C | – | > 100 µM | – | > 100 µM | – | > 100 µM | – | – | – | – | – | > 100 µM | – | > 100 µM | – | > 100 µM | – | > 100 µM | > 100 µM
O=C(O)COc1ccc2c3c1C(=O)CCC3CO2 (stereo not drawn) | – | > 100 µM | – | > 100 µM | – | > 100 µM | – | > 100 µM | – | – | – | > 100 µM | – | > 100 µM | – | > 100 µM | – | > 100 µM | > 100 µM
O=C1C2=C(c3ccccc31)C(c1ccccc1Cl)NC(=S)N2 (stereo not drawn) | – | > 100 µM | – | > 100 µM | – | > 100 µM | – | > 100 µM | – | – | – | > 100 µM | – | > 100 µM | – | > 100 µM | – | > 100 µM | > 100 µM
C=CCC1=C2CCCCC2CCC1=O (stereo not drawn) | – | > 100 µM | – | > 100 µM | – | > 100 µM | – | > 100 µM | – | – | – | > 100 µM | – | > 100 µM | – | > 100 µM | – | > 100 µM | > 100 µM
